Measurements: PubChem BioAssay (NCI)
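Following 48 hours of exposure in 96-well plates, responses at five concentrations were used to interpolate endpoints linearly. The concentration for 50% growth inhibition is given as GI50. TGI: concentration producing complete growth inhibition.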

What was measured:
Experiment in all cases: NCI tumour cell line growth inhibition, 48 h
DLD-1 colon = test system: DLD-1 colon
DMS 114 small cell lung = test system: DMS 114 small cell lung
HOP-18 NSCLC = test system: HOP-18 NSCLC
KM20L2 colon = test system: KM20L2 colon
M19-MEL melanoma = test system: M19-MEL melanoma
SNB-78 CNS = test system: SNB-78 CNS
MDA-N = test system: MDA-N
RXF-631 renal = test system: RXF-631 renal
XF 498 CNS = test system: XF 498 CNS
P388 leukemia = test system: P388 leukemia
P388/ADR leukemia = test system: P388/ADR leukemia
SN12K1 renal = test system: SN12K1 renal

Compound	TGI (DLD-1 colon)	TGI (DMS 114 small cell lung)	TGI (HOP-18 NSCLC)	TGI (KM20L2 colon)	TGI (M19-MEL melanoma)	TGI (SNB-78 CNS)	TGI (RXF-631 renal)	TGI (XF 498 CNS)	also measured
Cc1ccc(-c2c(N)nc(NC#N)nc2CCC(=O)Nc2ccccc2[N+](=O)[O-])cc1	> 100 µM	> 100 µM	> 100 µM	> 100 µM	> 100 µM	> 100 µM			
Clc1ccccc1C(c1ccccc1)(c1ccccc1)n1ccnc1									TGI (MDA-N): 32.1 µM
O=C1NC2(CCCC2)C(=O)C12CCCC2	> 100 µM		> 100 µM		> 100 µM	> 100 µM	> 100 µM	> 100 µM	
C=CC1=CSNN1	> 100 µM	> 100 µM	> 100 µM	> 100 µM	> 100 µM				
C1COCCN1.C1COCCN1.N.N.[Cl-].[Pt+2]	> 100 µM		> 100 µM	> 100 µM		> 100 µM			GI50 (DLD-1 colon): > 100 µM; GI50 (HOP-18 NSCLC): > 100 µM; GI50 (KM20L2 colon): > 100 µM; GI50 (SNB-78 CNS): > 100 µM
CSc1nc(SC)c2c(CN=[N+]=[N-])c(Br)n(Cc3ccccc3)c2n1									TGI (MDA-N): > 100 µM
CSC1=NC=CCN1C	> 100 µM	> 100 µM	> 100 µM	> 100 µM	> 100 µM				
CC(=O)OC1=C2CC3(C)OC(=O)CC(C)(C)C3=CC=C2C=C(C(C)C)C1=O (configuration not stated)	0.504 µM	1.56 µM	2.39 µM	3.38 µM	1.75 µM	0.985 µM	3.08 µM		
C=CCSC[C@H](NC(=O)COc1ccccc1)C(=O)NC(C(=O)OCc1ccc([N+](=O)[O-])cc1)=C(C)C	> 100 µM	> 100 µM	> 100 µM	> 100 µM	> 100 µM	> 100 µM	> 100 µM		
O=c1cc(-c2cccc(F)c2)[nH]c2cc3c(cc12)OCO3	8.93 µM	2.24 µM	75 µM		75 µM	75 µM		75 µM	TGI (MDA-N): 0.0407 µM
Cn1cc(NC(=O)c2cc(NC(=O)CCCCCCCCCCC(=O)Nc3cc(C(=O)Nc4cc(C(=O)NCCC(=N)N)n(C)c4)n(C)c3)cn2C)cc1C(=O)NCCC(=N)N	> 100 µM		> 100 µM	> 100 µM		> 100 µM		> 100 µM	
O=c1[nH]c2ccccc2cc1C(Cl)=C(Cl)Cl	> 100 µM	> 100 µM	> 100 µM	> 100 µM	> 100 µM	> 100 µM		> 100 µM	
CCc1c2c(nc3cc4c(cc13)OCO4)-c1cc3c(c(=O)n1C2)COC(=O)[C@]3(O)CC									TGI (MDA-N): > 100 µM
N#CC1(c2nc3ccccc3o2)C(=O)C(=O)N(C2C3CC4CC(C3)CC2C4)C(=O)C1=O (configuration not stated)		> 100 µM	> 100 µM	> 100 µM	> 100 µM	> 100 µM		> 100 µM	
C#CCNC(=O)NC(CCCNC(=O)OCc1ccccc1)C(=O)OCc1ccccc1 (configuration not stated)	> 100 µM	> 100 µM		> 100 µM	> 100 µM	> 100 µM	> 100 µM	26.9 µM	

Compound	TGI (DLD-1 colon)	TGI (DMS 114 small cell lung)	TGI (HOP-18 NSCLC)	TGI (KM20L2 colon)	TGI (M19-MEL melanoma)	TGI (SNB-78 CNS)	TGI (RXF-631 renal)	TGI (XF 498 CNS)	also measured
COc1ccc2cc1Oc1ccc(cc1)C[C@H]1c3cc(c(OC)cc3CCN1C)Oc1c(OC)c(OC)cc3c1[C@H](C2)N(C)CC3	20.5 µM	15.3 µM	20.3 µM	10.7 µM		21.1 µM		18.1 µM	TGI (P388 leukemia): 9.38 µM; TGI (P388/ADR leukemia): 14.9 µM; TGI (SN12K1 renal): 14 µM
NC(CO)Cc1cnc[nH]1 (configuration not stated)									GI50 (MDA-N): > 100 µM; TGI (MDA-N): > 100 µM
Cc1ccccc1C(C#N)C(=O)C(=O)Nc1nc([N+](=O)[O-])cs1 (configuration not stated)	> 100 µM	> 100 µM	> 100 µM	> 100 µM	> 100 µM	> 100 µM	> 100 µM	> 100 µM	
CCOc1ccc(NC(=O)CC2Sc3ccccc3NC2=O)cc1 (configuration not stated)	> 100 µM	> 100 µM	54 µM	> 100 µM	> 100 µM	> 100 µM			
O=[N+]([O-])[C@@H]1C2C=CC(C2)[C@H]1Cl (some centres not stated)	> 100 µM	> 100 µM	> 100 µM		> 100 µM	> 100 µM	> 100 µM	> 100 µM	
O=C(C#Cc1c[nH]c(=O)[nH]c1=O)c1ccccc1Cl	29.3 µM	46.9 µM	34.4 µM			60.7 µM			
CN(C)/C(=N/C(=S)Nc1ccccc1)SCc1ccccc1	> 100 µM	> 100 µM	> 100 µM		> 100 µM	> 100 µM	> 100 µM	> 100 µM	
COC(=O)C(=O)CC(=O)CCn1ncc(Cl)c(Cl)c1=O	24.9 µM	8.69 µM		33.4 µM	15.3 µM	50.8 µM	23.6 µM	44.6 µM	
COc1cc2c(c3c1C=CCO3)C(=O)c1ccccc1C2=O	71.1 µM	> 100 µM	> 100 µM	> 100 µM	> 100 µM	> 100 µM			
CCOC(=O)CC1=Nc2ccccc2SC1	> 100 µM	> 100 µM	> 100 µM	> 100 µM	> 100 µM	> 100 µM	> 100 µM	> 100 µM	
CC(CO)(CO)N=Cc1cc(I)cc(I)c1O									TGI (MDA-N): 64.2 µM
N/C(CC(=O)Nc1cc(C(F)(F)F)ccc1Cl)=N\O									TGI (MDA-N): > 100 µM
CCCCCCCCCCCCC(=O)OC(c1cnco1)c1nc(C(O)CC(O)C(O)C(C)O)co1 (configuration not stated)	> 100 µM	3.96 µM	> 100 µM	> 48.2 µM	> 52.7 µM			> 100 µM	
FC(F)(F)c1nc(-c2ccccc2Cl)[nH]c1C(F)(F)F	> 29.5 µM	1.9 µM	2.6 µM	3.44 µM	3.77 µM	> 29.5 µM		1.54 µM	
Cc1cc2c(cc1C)[n+](=O)c(C(=O)C/C(=N/NC(=O)c1ccccc1O)C(=O)Nc1ccccc1C(C)C)c(C)n2[O-]	> 100 µM	> 100 µM	> 100 µM	> 100 µM	> 100 µM	> 100 µM	> 100 µM		
